Source: US6872690B2, “Herbicidal 2-alkynyl-pyri (mi) dines” (WYETH, priority 2001, dated 2005)

Assays:
Type in all cases: in vivo
Abutilon theophrasti [1] = experiment: Post-emergence herbicidal activity test; settings: 2-4 weeks after treatment
Method: (§1) To evaluate their herbicidal activity, compounds according to the invention are tested using a representative range of plants:
(§2) These acetone solutions are diluted with water and the resulting formulations applied at dosage levels equivalent of about 0.025 to 0. 4 kg per hectare of test compound per pot. After spraying the plants are placed on greenhouse benches and are cared for in the usual manner, commensurate with conventional greenhouse practices. From 2 to 4 weeks after treatment, the seedling plants are examined and rated according to the rating system provided above.

Cassia obtusifolia [2] = experiment: Post-emergence herbicidal activity test; settings: 2-4 weeks after treatment
Method: as §1, §2

Alopecurus myosuroides [3] = experiment: Post-emergence herbicidal activity test; settings: 2-4 weeks after treatment
Method: as §1, §2

Galium aparine [4] = experiment: Post-emergence herbicidal activity test; settings: 2-4 weeks after treatment
Method: as §1, §2

Stellaria media [5] = experiment: Post-emergence herbicidal activity test; settings: 2-4 weeks after treatment
Method: as §1, §2

Triticum aestivum [6] = experiment: Post-emergence herbicidal activity test; settings: 2-4 weeks after treatment
Method: as §1, §2

Matricaria inodora [7] = experiment: Post-emergence herbicidal activity test; settings: 2-4 weeks after treatment
Method: as §1, §2

Echinochloa crus-galli [8] = experiment: Post-emergence herbicidal activity test; settings: 2-4 weeks after treatment
Method: as §1, §2

Orysa sativa [9] = experiment: Post-emergence herbicidal activity test; settings: 2-4 weeks after treatment
Method: as §1, §2

Zea mays [10] = experiment: Post-emergence herbicidal activity test; settings: 2-4 weeks after treatment
Method: as §1, §2

Digitaria sanguinalis [11] = experiment: Post-emergence herbicidal activity test; settings: 2-4 weeks after treatment
Method: as §1, §2

Ipomoea hederacea [12] = experiment: Post-emergence herbicidal activity test; settings: 2-4 weeks after treatment
Method: as §1, §2

Glycine max [13] = experiment: Post-emergence herbicidal activity test; settings: 2-4 weeks after treatment
Method: as §1, §2

Setaria viridis [14] = experiment: Post-emergence herbicidal activity test; settings: 2-4 weeks after treatment
Method: as §1, §2

Abutilon theophrasti [15] = experiment: Pre-emergence test; settings: 0.400 kg/ha, 3 weeks after treatment
Method: as §1
(§3) The pre-emergence tests involve spraying a liquid formulation of the compound onto the soil in which the seeds of the plant species mentioned above has recently been sown.
(§4) The soil used in the tests is a prepared horticultural loam. The formulations used in the tests are prepared from solutions of the test compounds in acetone containing 0.4% by weight of an alkyl-phenol/ethylene oxide condensate available under the trade mark TRITON X-155. These acetone solutions are diluted with water and the resulting formulations applied at dosage levels corresponding to 0.013 kg, 0.025 kg, 0.100 kg or 0.400 kg of active material per hectare in a volume equivalent to 900 litres per hectare. In these tests untreated sown soil are used as controls. From 2 to 4 weeks after treatment, the tests are terminated and each pot is examined and rated according to the rating system set forth below: […]

Cassia obtusifolia [16] = experiment: Pre-emergence test; settings: 3 weeks after treatment
Method: as §1, §3, §4

Alopecurus myosuroides [17] = experiment: Pre-emergence test; settings: 3 weeks after treatment
Method: as §1, §3, §4

Galium aparine [18] = experiment: Pre-emergence test; settings: 3 weeks after treatment
Method: as §1, §3, §4

Stellaria media [19] = experiment: Pre-emergence test; settings: 3 weeks after treatment
Method: as §1, §3, §4

Triticum aestivum [20] = experiment: Pre-emergence test; settings: 3 weeks after treatment
Method: as §1, §3, §4

Matricaria inodora [21] = experiment: Pre-emergence test; settings: 3 weeks after treatment
Method: as §1, §3, §4

Lamium purpureum = experiment: Pre-emergence test; settings: 3 weeks after treatment
Method: as §1, §3, §4

Echinochloa crus-galli [22] = experiment: Pre-emergence test; settings: 3 weeks after treatment
Method: as §1, §3, §4

Orysa sativa [23] = experiment: Pre-emergence test; settings: 3 weeks after treatment
Method: as §1, §3, §4

Zea mays [24] = experiment: Pre-emergence test; settings: 3 weeks after treatment
Method: as §1, §3, §4

Digitaria sanguinalis [25] = experiment: Pre-emergence test; settings: 3 weeks after treatment
Method: as §1, §3, §4

Ipomoea hederacea [26] = experiment: Pre-emergence test; settings: 0.400 kg/ha, 3 weeks after treatment
Method: as §1, §3, §4

Glycine max [27] = experiment: Pre-emergence test; settings: 0.400 kg/ha, 3 weeks after treatment
Method: as §1, §3, §4

Setaria viridis [28] = experiment: Pre-emergence test; settings: 3 weeks after treatment
Method: as §1, §3, §4

## Cn1nc(C(F)(F)F)cc1Oc1cccc(C#Cc2ccccc2)n1 [Example 31]
Abutilon theophrasti [1]; 0.100 kg/ha
  Post-emergence application ABUTH: 3 (3-Moderate effect)
Abutilon theophrasti [1]; 0.400 kg/ha
  Post-emergence application ABUTH: 5 (5-Definite injury)
Cassia obtusifolia [2]; 0.100 kg/ha
  Post-emergence application CASOB: 6 (6-Herbicidal effect)
Cassia obtusifolia [2]; 0.400 kg/ha
  Post-emergence application CASOB: 6 (6-Herbicidal effect)
Alopecurus myosuroides [3]; 0.100 kg/ha
  Post-emergence application ALOMY: 3 (3-Moderate effect)
Alopecurus myosuroides [3]; 0.400 kg/ha
  Post-emergence application ALOMY: 5 (5-Definite injury)
Galium aparine [4]; 0.100 kg/ha
  Post-emergence application GALAP: 4 (4-Injury)
Galium aparine [4]; 0.400 kg/ha
  Post-emergence application GALAP: 6 (6-Herbicidal effect)
Stellaria media [5]; 0.100 kg/ha
  Post-emergence application STEME: 5 (5-Definite injury)
Stellaria media [5]; 0.400 kg/ha
  Post-emergence application STEME: 6 (6-Herbicidal effect)
Triticum aestivum [6]; 0.100 kg/ha
  Post-emergence application TRZWA: 1 (1-Trace effect)
Triticum aestivum [6]; 0.400 kg/ha
  Post-emergence application TRZWA: 2 (2-Slight effect)
Matricaria inodora [7]; 0.100 kg/ha
  Post-emergence application MATIN: 3 (3-Moderate effect)
Matricaria inodora [7]; 0.400 kg/ha
  Post-emergence application MATIN: 4 (4-Injury)
Echinochloa crus-galli [8]; 0.100 kg/ha
  Post-emergence application ECHCG: 3 (3-Moderate effect)
Echinochloa crus-galli [8]; 0.400 kg/ha
  Post-emergence application ECHCG: 5 (5-Definite injury)
Orysa sativa [9]; 0.100 kg/ha
  Post-emergence application ORYSA: 1 (1-Trace effect)
Orysa sativa [9]; 0.400 kg/ha
  Post-emergence application ORYSA: 2 (2-Slight effect)
Zea mays [10]; 0.100 kg/ha
  Post-emergence application ZEAMX: 2 (2-Slight effect)
Zea mays [10]; 0.400 kg/ha
  Post-emergence application ZEAMX: 3 (3-Moderate effect)
Digitaria sanguinalis [11]; 0.100 kg/ha
  Post-emergence application DIGSA: 4 (4-Injury)
Digitaria sanguinalis [11]; 0.400 kg/ha
  Post-emergence application DIGSA: 4 (4-Injury)
Ipomoea hederacea [12]; 0.100 kg/ha
  Post-emergence application IPOHE: 7 (7-Good herbicidal effect)
Ipomoea hederacea [12]; 0.400 kg/ha
  Post-emergence application IPOHE: 8 (8-Approaching complete kill)
Glycine max [13]; 0.100 kg/ha
  Post-emergence application GLXMA: 4 (4-Injury)
Glycine max [13]; 0.400 kg/ha
  Post-emergence application GLXMA: 4 (4-Injury)
Setaria viridis [14]; 0.100 kg/ha
  Post-emergence application SETVI: 5 (5-Definite injury)
Setaria viridis [14]; 0.400 kg/ha
  Post-emergence application SETVI: 7 (7-Good herbicidal effect)
Abutilon theophrasti [15]
  Assessment (pre-emergence application) ABUTH: 2 (2-Slight effect)
Cassia obtusifolia [16]; 0.025 kg/ha
  Assessment (pre-emergence application) CASOB: 1 (1-Trace effect)
Cassia obtusifolia [16]; 0.100 kg/ha
  Assessment (pre-emergence application) CASOB: 3 (3-Moderate effect)
Cassia obtusifolia [16]; 0.400 kg/ha
  Assessment (pre-emergence application) CASOB: 3 (3-Moderate effect)
Alopecurus myosuroides [17]; 0.025 kg/ha
  Assessment (pre-emergence application) ALOMY: 0 (0-No effect)
Alopecurus myosuroides [17]; 0.100 kg/ha
  Assessment (pre-emergence application) ALOMY: 1 (1-Trace effect)
Alopecurus myosuroides [17]; 0.400 kg/ha
  Assessment (pre-emergence application) ALOMY: 3 (3-Moderate effect)
Galium aparine [18]; 0.025 kg/ha
  Assessment (pre-emergence application) GALAP: 1 (1-Trace effect)
Galium aparine [18]; 0.100 kg/ha
  Assessment (pre-emergence application) GALAP: 2 (2-Slight effect)
Stellaria media [19]; 0.025 kg/ha
  Assessment (pre-emergence application) STEME: 2 (2-Slight effect)
Stellaria media [19]; 0.100 kg/ha
  Assessment (pre-emergence application) STEME: 8 (8-Approaching complete kill)
Stellaria media [19]; 0.400 kg/ha
  Assessment (pre-emergence application) STEME: 9 (9-Complete kill)
Triticum aestivum [20]; 0.025 kg/ha
  Assessment (pre-emergence application) TRZWA: 0 (0-No effect)
Triticum aestivum [20]; 0.100 kg/ha
  Assessment (pre-emergence application) TRZWA: 0 (0-No effect)
Triticum aestivum [20]; 0.400 kg/ha
  Assessment (pre-emergence application) TRZWA: 0 (0-No effect)
Matricaria inodora [21]; 0.025 kg/ha
  Assessment (pre-emergence application) MATIN: 2 (2-Slight effect)
Matricaria inodora [21]; 0.100 kg/ha
  Assessment (pre-emergence application) MATIN: 6 (6-Herbicidal effect)
Matricaria inodora [21]; 0.400 kg/ha
  Assessment (pre-emergence application) MATIN: 7 (7-Good herbicidal effect)
Lamium purpureum; 0.025 kg/ha
  Assessment (pre-emergence application) LAMPU: 7 (7-Good herbicidal effect)
Lamium purpureum; 0.100 kg/ha
  Assessment (pre-emergence application) LAMPU: 8 (8-Approaching complete kill)
Lamium purpureum; 0.400 kg/ha
  Assessment (pre-emergence application) LAMPU: 8 (8-Approaching complete kill)
Echinochloa crus-galli [22]; 0.025 kg/ha
  Assessment (pre-emergence application) ECHCG: 0 (0-No effect)
Echinochloa crus-galli [22]; 0.100 kg/ha
  Assessment (pre-emergence application) ECHCG: 2 (2-Slight effect)
Echinochloa crus-galli [22]; 0.400 kg/ha
  Assessment (pre-emergence application) ECHCG: 5 (5-Definite injury)
Orysa sativa [23]; 0.025 kg/ha
  Assessment (pre-emergence application) ORYSA: 0 (0-No effect)
Orysa sativa [23]; 0.100 kg/ha
  Assessment (pre-emergence application) ORYSA: 1 (1-Trace effect)
Orysa sativa [23]; 0.400 kg/ha
  Assessment (pre-emergence application) ORYSA: 1 (1-Trace effect)
Zea mays [24]; 0.025 kg/ha
  Assessment (pre-emergence application) ZEAMX: 1 (1-Trace effect)
Zea mays [24]; 0.100 kg/ha
  Assessment (pre-emergence application) ZEAMX: 2 (2-Slight effect)
Zea mays [24]; 0.400 kg/ha
  Assessment (pre-emergence application) ZEAMX: 2 (2-Slight effect)
Digitaria sanguinalis [25]; 0.025 kg/ha
  Assessment (pre-emergence application) DIGSA: 2 (2-Slight effect)
Digitaria sanguinalis [25]; 0.100 kg/ha
  Assessment (pre-emergence application) DIGSA: 5 (5-Definite injury)
Digitaria sanguinalis [25]; 0.400 kg/ha
  Assessment (pre-emergence application) DIGSA: 8 (8-Approaching complete kill)
Ipomoea hederacea [26]
  Assessment (pre-emergence application) IPOHE: 2 (2-Slight effect)
Glycine max [27]
  Assessment (pre-emergence application) GLXMA: 1 (1-Trace effect)
Setaria viridis [28]; 0.025 kg/ha
  Assessment (pre-emergence application) SETVI: 2 (2-Slight effect)
Setaria viridis [28]; 0.100 kg/ha
  Assessment (pre-emergence application) SETVI: 6 (6-Herbicidal effect)
Setaria viridis [28]; 0.400 kg/ha
  Assessment (pre-emergence application) SETVI: 8 (8-Approaching complete kill)
